Test results published in patent US20260200946A1, “KRAS(G12V) INHIBITORS” (Ranok Therapeutics (Hangzhou) Co. Ltd., priority 2022, published 2026).
pEC50: −log10 of the molar value.

System: NCIH727 cells
Test: Cancer cell line proliferation (CellTiter-Glo), NCI-H727
Format: cell-based
Details: Homo sapiens, NCIH727 lung carcinoid, heterozygous G12V
Protocol: Cell lines were cultured essentially according to ATCC recommendations.
SW620 and NCIH727 cells were plated in 384-well tissue culture plates at 1,000 cells/well and incubated at 37° C./5% CO2 for 72 hr in 40 μl of media. […] Each cell line was then treated with test compounds at various concentrations with a final concentration of 0.5% DMSO/well, and then incubated at 37° C./5% CO2 for 72 hr. 40 μl of CellTiter-Glo® Reagent (Promega Corporation, Madison, WI) was added to each well and processed according manufacturer's protocol. Results were analyzed and IC50 values were calculated in GraphPad 8.0 software.

Compound	pEC50 (72 h)	pEC50 (72 hr)
C#Cc1c(F)ccc2cc(O)cc(-c3nc(OC)c4c(N5CC6CCC(C5)N6C(C)C)nc(OCC5(CN6CC7CC7C6)CC5)nc4c3F)c12 (centres unmarked) [Example 121]	< 6.00	
C#Cc1c(F)ccc2cc(O)cc(-c3nc(OC)c4c(N5CC6CCC(C5)N6C(=O)CC(C)=O)nc(OCC5(CN6CC7CC7C6)CC5)nc4c3F)c12 (centres unmarked) [Example 122]	6.00 to 7.00	
C#Cc1c(F)ccc2cc(O)cc(-c3nc(OC)c4c(N5CC6CCC(C5)N6C(=O)C(C)C#N)nc(OCC5(CN6CC7CC7C6)CC5)nc4c3F)c12 (centres unmarked) [Example 123]	6.00 to 7.00	
C#Cc1c(F)ccc2cc(O)cc(-c3nc(OC)c4c(N5CC6CCC(C5)N6C(=O)C(C)=O)nc(OCC5(CN6CC7CC7C6)CC5)nc4c3F)c12 (centres unmarked) [Example 124]	6.00 to 7.00	
[2H]C([2H])([2H])Oc1nc(-c2cc(O)cc3ccc(F)c(C#C)c23)c(F)c2nc(OCC3(CN4CC5CC5C4)CC3)nc(N3CC4CCC(C3)N4C(=O)C(C#N)CC(F)(F)F)c12 (centres unmarked) [Example 125]	6.00 to 7.00	
C#Cc1c(F)ccc2cc(O)cc(-c3nc(OC)c4c(N5CC6CCC(C5)N6C(=O)C(C#N)CC)nc(OCC5(CN6CC7CC7C6)CC5)nc4c3F)c12 (centres unmarked) [Example 126]	6.00 to 7.00	
O=CO.[2H]C([2H])([2H])Oc1nc(-c2cc(O)cc3ccc(F)c(C#C)c23)c(F)c2nc(OCC3(CN4CC5CC5C4)CC3)nc(N3CC4CCC(C3)N4C(=O)C(C#N)CC#N)c12 (centres unmarked) [Example 127]	6.00 to 7.00	
C#Cc1c(F)ccc2cc(O)cc(-c3nc(OC)c4c(N5CC6CCC(C5)N6C(=O)CC[N+](=O)[O-])nc(OCC5(CN6CC7CC7C6)CC5)nc4c3F)c12 (centres unmarked) [Example 128]	6.00 to 7.00	
C#Cc1c(F)ccc2cc(O)cc(-c3nc(OC)c4c(N5CC6CCC(C5)N6C(=O)N5CC(C#N)C5)nc(OCC5(CN6CC7CC7C6)CC5)nc4c3F)c12 (centres unmarked) [Example 130]	> 7.00	
C#Cc1c(F)ccc2cc(O)cc(-c3nc(OC)c4c(N5CC6CCC(C5)N6C(=O)C(CC#N)CC#N)nc(OCC5(CN6CC7CC7C6)CC5)nc4c3F)c12 (centres unmarked) [Example 131]	6.00 to 7.00	
C#Cc1c(F)ccc2cc(O)cc(-c3nc(OC)c4c(N5CC6CCC(C5)N6C(=O)CCC=O)nc(OCC5(CN6CC7CC7C6)CC5)nc4c3F)c12 (centres unmarked) [Example 132]	6.00 to 7.00	
C#Cc1c(F)ccc2cc(O)cc(-c3nc(OC)c4c(N5CC6CCC(C5)N6C(=O)NCC(F)(F)F)nc(OCC5(CN6CCC(C#N)CC6)CC5)nc4c3F)c12 [Example 133]	> 7.00	
C#Cc1c(F)ccc2cc(O)cc(-c3nc(OC)c4c(N5CC6CCC(C5)N6C(=O)NC(C)C#N)nc(OCC5(CN6CCC(C#N)CC6)CC5)nc4c3F)c12 (centres unmarked) [Example 134]	> 7.00	
C#Cc1c(F)ccc2cc(O)cc(-c3nc(OC)c4c(N5CC6CCC(C5)N6C(=O)NC(C)C#N)nc(OCC5(CN6CCC(C(F)(F)F)CC6)CC5)nc4c3F)c12 (centres unmarked) [Example 135]	> 7.00	
C#Cc1c(F)ccc2cc(O)cc(-c3nc(OC)c4c(N5CC6CCC(C5)N6C(=O)NCC(F)(F)F)nc(OCC5(CN6CCC(C(F)(F)F)CC6)CC5)nc4c3F)c12 [Example 136]	> 7.00	
C#Cc1c(F)ccc2cc(O)cc(-c3nc(OC)c4c(N5CC6CCC(C5)N6C)nc(OCC5(CN6CC7CC7C6)CC5)nc4c3F)c12 (centres unmarked) [Example 137]	< 6.00	
C#Cc1c(F)ccc2cc(O)cc(-c3nc(OC)c4c(N5CC6CCC(C5)N6C(=O)COC(F)(F)F)nc(OCC5(CN6CC7CC7C6)CC5)nc4c3F)c12 (centres unmarked) [Example 138]	6.00 to 7.00	
C#Cc1c(F)ccc2cc(O)cc(-c3nc(OC)c4c(N5CC6CCC(C5)N6C(=O)C(C)(C#N)CC#N)nc(OCC5(CN6CC7CC7C6)CC5)nc4c3F)c12 (centres unmarked) [Example 139]	6.00 to 7.00	
C#Cc1c(F)ccc2cc(O)cc(-c3nc(OC)c4c(N5CC6CCC(C5)N6C(=O)C(C)CC#N)nc(OCC5(CN6CC7CC7C6)CC5)nc4c3F)c12 (centres unmarked) [Example 141]	6.00 to 7.00	
C#Cc1c(F)ccc2cc(O)cc(-c3nc(OC)c4c(N5CC6CCC(C5)N6C)nc(OCC5(CN6CCC(C(F)(F)F)CC6)CC5)nc4c3F)c12 [Example 142]	< 6.00	
C#Cc1c(F)ccc2cc(O)cc(-c3nc(OC)c4c(N5CC6CCC(C5)N6C(=O)N5CC6CC6C5)nc(OCC5(CN6CC7CC7C6)CC5)nc4c3F)c12 (centres unmarked) [Example 143]	6.00 to 7.00	
C#Cc1c(F)ccc2cc(O)cc(-c3nc(OC)c4c(N5CC6CCC(C5)N6C(=O)NCC)nc(OCC5(CN6CC7CC7C6)CC5)nc4c3F)c12 (centres unmarked) [Example 144]	6.00 to 7.00	
C#Cc1c(F)ccc2cc(O)cc(-c3nc(OC)c4c(N5CC6CCC(C5)N6C(=O)NC5CC(C#N)C5)nc(OCC5(CN6CC7CC7C6)CC5)nc4c3F)c12 (centres unmarked) [Example 145]	6.00 to 7.00	
C#CCC(C#N)C(=O)N1C2CCC1CN(c1nc(OCC3(CN4CC5CC5C4)CC3)nc3c(F)c(-c4cc(O)cc5ccc(F)c(C#C)c45)nc(OC)c13)C2 (centres unmarked) [Example 146]	6.00 to 7.00	

Compound	pEC50 (72 h)	pEC50 (72 hr)
C#Cc1c(F)ccc2cc(O)cc(-c3nc(OC)c4c(N5CC6CCC(C5)N6C(=O)CC(C)(C)C#N)nc(OCC5(CN6CC7CC7C6)CC5)nc4c3F)c12 (centres unmarked) [Example 148]	> 7.00	
C#Cc1c(F)ccc2cc(O)cc(-c3nc(OC)c4c(N5CC6CCC(C5)N6C(=O)C5CNC(=O)C5)nc(OCC5(CN6CC7CC7C6)CC5)nc4c3F)c12 (centres unmarked) [Example 149]	< 6.00	
C#Cc1c(F)ccc2cc(O)cc(-c3nc(OC)c4c(N5CC6CCC(C5)N6C(=O)C5CC(F)(C(C)C)C5)nc(OCC5(CN6CC7CC7C6)CC5)nc4c3F)c12 (centres unmarked) [Example 150]	6.00 to 7.00	
C#Cc1c(F)ccc2cc(O)cc(-c3nc(OC)c4c(N5CC6CCC(C5)N6C(=O)C5CN(C)C5)nc(OCC5(CN6CC7CC7C6)CC5)nc4c3F)c12 (centres unmarked) [Example 151]	< 6.00	
C#Cc1c(F)ccc2cc(O)cc(-c3nc(OC)c4c(N5CC6CCC(C5)N6C(=O)c5cocn5)nc(OCC5(CN6CC7CC7C6)CC5)nc4c3F)c12 (centres unmarked) [Example 153]	6.00 to 7.00	
C#Cc1c(F)ccc2cc(O)cc(-c3nc(OC)c4c(N5CC6CCC(C5)N6C(=O)C5CC(F)(F)CO5)nc(OCC5(CN6CC7CC7C6)CC5)nc4c3F)c12 (centres unmarked) [Example 154]	6.00 to 7.00	
C#Cc1c(F)ccc2cc(O)cc(-c3nc(OC)c4c(N5CC6CCC(C5)N6C(=O)C5C6CCOC65)nc(OCC5(CN6CC7CC7C6)CC5)nc4c3F)c12 (centres unmarked) [Example 155]	> 7.00	
C#Cc1c(F)ccc2cc(O)cc(-c3nc(OC)c4c(N5CC6CCC(C5)N6C(=O)CCNC)nc(OCC5(CN6CC7CC7C6)CC5)nc4c3F)c12 (centres unmarked) [Example 157]	< 6.00	
C#Cc1c(F)ccc2cc(O)cc(-c3nc(OC)c4c(N5CC6CCC(C5)N6C(=O)NC5CN(C)C5)nc(OCC5(CN6CC7CC7C6)CC5)nc4c3F)c12 (centres unmarked) [Example 158]	< 6.00	
C#Cc1c(F)ccc2cc(O)cc(-c3nc(OC)c4c(N5CC6CCC(C5)N6C(=O)N(C)CC(F)(F)F)nc(OCC5(CN6CC7CC7C6)CC5)nc4c3F)c12 (centres unmarked) [Example 159]	6.00 to 7.00	
C#Cc1c(F)ccc2cc(O)cc(-c3nc(OC)c4c(N5CC6CCC(C5)N6C(=O)OCC#N)nc(OCC5(CN6CC7CC7C6)CC5)nc4c3F)c12 (centres unmarked) [Example 161]	> 7.00	
C#Cc1c(F)ccc2cc(O)cc(-c3nc(OC)c4c(N5CC6CCC(C5)N6C(=O)OCC(F)(F)F)nc(OCC5(CN6CC7CC7C6)CC5)nc4c3F)c12 (centres unmarked) [Example 162]		6.00 to 7.00
C#Cc1c(F)ccc2cc(O)cc(-c3nc(OC)c4c(N5CC6CCC(C5)N6C(=O)NC(C)C(F)(F)F)nc(OCC5(CN6CC7CC7C6)CC5)nc4c3F)c12 (centres unmarked) [Example 163]	6.00 to 7.00	
C#Cc1c(F)ccc2cc(O)cc(-c3nc(OC)c4c(N5CC6CCC(C5)N6C(=O)OCC)nc(OCC5(CN6CC7CC7C6)CC5)nc4c3F)c12 (centres unmarked) [Example 164]	6.00 to 7.00	
C#Cc1c(F)ccc2cc(N)cc(-c3nc(OC)c4c(N5CC6CCC(C5)N6C(=S)NC(C)C#N)nc(OCC5(CN6CC7CC7C6)CC5)nc4c3F)c12 (centres unmarked) [Example 166]	< 6.00	
C#Cc1c(F)ccc2cc(O)cc(-c3nc(OC)c4c(N5CC6CCC(C5)N6C(=O)C5CC(F)(F)C5(F)F)nc(OCC5(CN6CC7CC7C6)CC5)nc4c3F)c12 (centres unmarked) [Example 167]	< 6.00	
C#Cc1c(F)ccc2cc(O)cc(-c3nc(OC)c4c(N5CC6CCC(C5)N6C(=O)CCN(C)OC)nc(OCC5(CN6CC7CC7C6)CC5)nc4c3F)c12 (centres unmarked) [Example 168]	6.00 to 7.00	
C#Cc1c(F)ccc2cc(O)cc(-c3nc(OC)c4c(N5CC6CCC(C5)C6C(=O)NCC(F)(F)F)nc(OCC5(CN6CC7CC7C6)CC5)nc4c3F)c12 (centres unmarked) [Example 170]	< 6.00	
C#Cc1c(F)ccc2cc(N)cc(-c3nc(OC)c4c(N5CC6CCC(C5)N6C(=O)C[C@@H](O)C(F)(F)F)nc(OCC5(CN6CC7CC7C6)CC5)nc4c3F)c12 (some centres unmarked) [Example 171]	6.00 to 7.00	
Cc1cc(N)nc(-c2c(Cl)cc3c(N4CC5CCC(C4)N5C(=O)CCOC(F)(F)F)nc(OCC4(CN5CC6CC6C5)CC4)nc3c2F)c1C(F)(F)F (centres unmarked) [Example 174]	< 6.00	
C#Cc1c(F)ccc2cc(O)cc(-c3nc(OC)c4c(N5CC6CCC(C5)N6C(=O)N5CC(OC(F)(F)F)C5)nc(OCC5(CN6CC7CC7C6)CC5)nc4c3F)c12 (centres unmarked) [Example 175]	6.00 to 7.00	
C#Cc1c(F)ccc2cc(O)cc(-c3nc(OC)c4c(N5CC6CCC(C5)N6C(=O)C[C@@H](C)C#N)nc(OCC5(CN6CC7CC7C6)CC5)nc4c3F)c12 (some centres unmarked) [Example 177]	> 7.00	
C#Cc1c(F)ccc2cc(OC(=O)C(C)C)cc(-c3nc(OC)c4c(N5CC6CCC(C5)N6C(=O)C(C#N)CC#N)nc(OCC5(CN6CC7CC7C6)CC5)nc4c3F)c12 (centres unmarked) [Example 179]	6.00 to 7.00	
